The target of data set [1] is T1, human AKR7A2 (Homo sapiens, UniProt O43488).
T1 construct: made in house; host or cells: E. coli BL21 (DE3) pLysS, pET-28a vector
Description: Biacore assays: binding of azole drugs and 2-CBA to immobilized AKR7A2. The following applies: 25 °C; for kd: 1:1 binding model; for Kd: KD calculated by kd/ka. As to the method:
All experiments were performed on a Biacore 8k instrument (GE, Healthcare). According to the manufacturer’s handbook, about 1 mg/mL of freshly purified AKR7A2 protein was diluted with 10 mM sodium acetate buffer (pH 5.0) and was immobilized on a sensor chip CM5, via amine coupling, to a level of ~20,000 resonance units (RU). A reference surface was prepared in parallel with the addition of the buffer and was used for the subtraction of nonspecific binding. The analytes 2-CBA and azole drugs were diluted in a running buffer containing 2% DMSO. […] All samples were injected at a flow rate of 30 μL/min. The experimental sensorgrams were analyzed by Biacore 8k Evaluation Software Version 1.1.1.7442. The resulting curves were fitted with a 1:1 binding model, which gave the kinetic constants (ka, kd, and KD). All measurements were repeated in at least three independent experiments.

In data set [2] the target is T1, human AKR7A2. In words: Steady-state kinetics of AKR7A2 catalyzing 2-CBA in the absence or presence of azole drugs. It is filed as biochemical. The following applies: for effect on catalytic efficiency (kcat/Km) of AKR7A2 catalyzing 2-CBA: compared to absence of drug; for kcat / increment of kcat/Km compared with the absence of the drug: substrate 2-CBA; for increment of kcat/Km compared with the absence of the drug: highest concentration of drug (50 μM; fluconazole 100 μM). On the procedure:
(§1) The steady-state kinetic parameters of AKR7A2 catalyzing 2-CBA were measured on a UV-2550 spectrophotometer (SHIMADZU, Japan) in the absence or presence of azole drugs. All drugs were dissolved with DMSO. Fluconazole, voriconazole, and ketoconazole were all made up of 2, 5, and 10 mM of mother solution. […] The steady-state kinetic assays were performed, as before, with some modifications. […] The reactions were initiated by the addition of 2-CBA and were monitored for 4 min at 25 °C. […] The kinetic data were fitted to the Michaelis-Menten equation [56, 57] using GraphPad Prism 8.0 (GraphPad Software, San Diego, CA, USA). The kinetic parameters Km and kcat were generated by the fitting. The resulting data were expressed as the mean ± standard deviation (SD) based on at least three independent experiments. Statistical significance was analyzed by ANOVA, and the significance was defined as * p < 0.05, ** p < 0.01, *** p < 0.001, or **** p < 0.0001.

Data set [3] addresses T1, human AKR7A2. In words: Steady-state kinetics of AKR7A2 with SSA as a substrate in the absence or presence of voriconazole. It is filed as biochemical. The note with it: for kcat: substrate SSA. As to the method:
as §1, with “The steady-state kinetic parameters of AKR7A2 catalyzing 2-CBA were measured on a UV-2550 spectrophotometer (SHIMADZU, Japan) in the absence or presence of azole drugs.” left out, “The reactions were initiated by the addition of 2-CBA and were monitored for 4 min at 25 °C.” left out

On the set-up of data set [4]: method as in PMID 12942409. The note with it: patients, after administration; cited from earlier work.

The structures appear in SMILES notation.

Results on eight molecules are retold here after PMC10221418, “The Specific Binding and Promotion Effect of Azoles on Human Aldo-Keto Reductase 7A2” (Metabolites, 2023).

T1 sequence (O43488 39-359): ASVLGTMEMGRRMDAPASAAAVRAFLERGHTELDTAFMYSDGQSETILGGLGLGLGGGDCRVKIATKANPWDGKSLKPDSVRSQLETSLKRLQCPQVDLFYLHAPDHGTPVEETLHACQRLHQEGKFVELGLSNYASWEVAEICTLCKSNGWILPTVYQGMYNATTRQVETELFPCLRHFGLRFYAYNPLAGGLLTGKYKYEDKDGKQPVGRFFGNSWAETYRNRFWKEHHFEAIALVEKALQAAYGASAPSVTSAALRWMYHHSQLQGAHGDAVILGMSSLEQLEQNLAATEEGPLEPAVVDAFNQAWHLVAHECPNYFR

For `O=Cc1ccccc1C(=O)O` [2-CBA, 2-carboxybenzaldehyde], at human AKR7A2 [1], the kd was found to be 0.0229 ± 0.0202 s⁻¹ and the Kd is 19.3 ± 14.9 µM.
As to `Clc1ccc(COC(Cn2ccnc2)c2ccc(Cl)cc2Cl)cc1` (centres unmarked) [econazole], the “effect on catalytic efficiency (kcat/Km) of AKR7A2 catalyzing 2-CBA” value (“effect on catalytic efficiency (kcat/Km)” below) on human AKR7A2 [2] is given as “did not significantly change”. In addition, the turnover number (kcat) stood at 1.194 ± 0.0285 s⁻¹ on human AKR7A2 [2] (drug concentration 5 μM), 1.213 ± 0.0258 s⁻¹ on human AKR7A2 [2] (drug concentration 20 μM) and 1.262 ± 0.0635 s⁻¹ on human AKR7A2 [2] (drug concentration 50 μM). In addition, the kd on human AKR7A2 [1] is 15.9 ± 0.72 (s^−1) × 10^2. For the same molecule, the Kd at human AKR7A2 [1] was 565 ± 84 µM.
Take `OC(Cn1cncn1)(Cn1cncn1)c1ccc(F)cc1F` [fluconazole]: at human AKR7A2 [2], the “effect on catalytic efficiency (kcat/Km)” value was “enhanced significantly” and the “increment of kcat/Km compared with the absence of the drug” value turned out to be 64%. Moreover, at human AKR7A2 [2] (drug concentration 20 μM), the kcat is 1.195 ± 0.0173 s⁻¹. Further, the kcat on human AKR7A2 [2] (drug concentration 50 μM) is 1.221 ± 0.0192 s⁻¹. The kcat on human AKR7A2 [2] (drug concentration 100 μM) was 1.072 ± 0.0185 s⁻¹. For the same molecule, at human AKR7A2 [1], the kd came out at 0.0218 ± 0.0046 s⁻¹ and the Kd is 8.11 ± 4.83 µM.
As for `CCC(C)n1ncn(-c2ccc(N3CCN(c4ccc(OCC5COC(Cn6cncn6)(c6ccc(Cl)cc6Cl)O5)cc4)CC3)cc2)c1=O` (centres unmarked) [itraconazole], at human AKR7A2 [2], the “effect on catalytic efficiency (kcat/Km)” value is “enhanced significantly” and the “increment of kcat/Km compared with the absence of the drug” value turned out to be 35%. The kcat on human AKR7A2 [2] (drug concentration 5 μM) came to 1.342 ± 0.0237 s⁻¹. On human AKR7A2 [2] (drug concentration 20 μM), the kcat stood at 1.219 ± 0.0167 s⁻¹. Also, at human AKR7A2 [2] (drug concentration 50 μM), the kcat is 1.107 ± 0.023 s⁻¹. At human AKR7A2 [1], the kd amounted to 0.0263 ± 0.0035 s⁻¹ and the Kd is 0.81 ± 0.44 µM.
In the case of `CC(=O)N1CCN(c2ccc(OCC3COC(Cn4ccnc4)(c4ccc(Cl)cc4Cl)O3)cc2)CC1` (centres unmarked) [ketoconazole], at human AKR7A2 [2], the “effect on catalytic efficiency (kcat/Km)” value was “did not significantly change”. Also, the kcat on human AKR7A2 [2] (drug concentration 20 μM) was found to be 1.302 ± 0.0268 s⁻¹; at human AKR7A2 [2] (drug concentration 50 μM) it was 1.271 ± 0.0303 s⁻¹; on human AKR7A2 [2] (drug concentration 100 μM), 1.44 ± 0.0348 s⁻¹. Moreover, on human AKR7A2 [1], the kd is 12.6 ± 1.91 (s^−1) × 10^2. Moreover, the Kd on human AKR7A2 [1] was 1800 ± 438 µM.
As for `Clc1ccc(COC(Cn2ccnc2)c2ccc(Cl)cc2Cl)c(Cl)c1` (centres unmarked) [miconazole], at human AKR7A2 [2], the “effect on catalytic efficiency (kcat/Km)” value is on record as “enhanced significantly” and the “increment of kcat/Km compared with the absence of the drug” value is reported as 67%. For the same molecule, on human AKR7A2 [2] (drug concentration 5 μM), the kcat was found to be 1.205 ± 0.0228 s⁻¹. Further, the catalytic constant (kcat) at human AKR7A2 [2] (drug concentration 20 μM) worked out at 1.196 ± 0.0235 s⁻¹. Also, the kcat at human AKR7A2 [2] (drug concentration 50 μM) was determined as 1.236 ± 0.0292 s⁻¹. Besides, at human AKR7A2 [1], the kd worked out at 0.0536 ± 0.0017 s⁻¹ and the Kd was 84.9 ± 7.21 µM.
`CC[C@@H]([C@H](C)O)n1ncn(-c2ccc(N3CCN(c4ccc(OC[C@@H]5CO[C@@](Cn6cncn6)(c6ccc(F)cc6F)C5)cc4)CC3)cc2)c1=O` [posaconazole]: the “effect on catalytic efficiency (kcat/Km)” value at human AKR7A2 [2] was “enhanced significantly”. For the same molecule, the kcat is 1.239 ± 0.0212 s⁻¹ on human AKR7A2 [2] (drug concentration 5 μM), 1.273 ± 0.029 s⁻¹ at human AKR7A2 [2] (drug concentration 20 μM) and 1.029 ± 0.0295 s⁻¹ at human AKR7A2 [2] (drug concentration 50 μM). In addition, the “increment of kcat/Km compared with the absence of the drug” value on human AKR7A2 [2] turned out to be 74%. Besides, the kd at human AKR7A2 [1] amounted to 0.0298 ± 0.0059 s⁻¹. On human AKR7A2 [1], the Kd is 1.35 ± 0.44 µM.
With `C[C@@H](c1ncncc1F)[C@](O)(Cn1cncn1)c1ccc(F)cc1F` [voriconazole], on human AKR7A2 [3] (concentration range of 0–50 µM), the “effect on catalysis of AKR7A2 with SSA as a substrate” value is on record as “efficiently promote the catalysis”. Also, the kcat worked out at 1.297 ± 0.0377 s⁻¹ at human AKR7A2 [3] (drug concentration 5 μM); 1.306 ± 0.024 s⁻¹ on human AKR7A2 [3] (drug concentration 20 μM); 1.326 ± 0.0222 s⁻¹ on human AKR7A2 [3] (drug concentration 50 μM); 1.126 ± 0.0163 s⁻¹ at human AKR7A2 [2] (drug concentration 20 μM); 1.237 ± 0.0168 s⁻¹ on human AKR7A2 [2] (drug concentration 50 μM); 1.258 ± 0.0248 s⁻¹ at human AKR7A2 [2] (drug concentration 100 μM). Besides, the cerebrospinal fluid concentrations in data set [4] was 0.08 to 3.93 µg/mL. The “effect on catalytic efficiency (kcat/Km)” value at human AKR7A2 [2] is “did not significantly change”. The molecule further returned a kd at human AKR7A2 [1] of 0.0168 ± 0.0072 s⁻¹. In addition, at human AKR7A2 [1], the Kd is 2.98 ± 2.11 µM.
